Key:
[1] = target: T1, AhR (Homo sapiens, UniProt P35869); assay: Inhibition of AhR-mediated gene transcription (HEK-XRE 11.1 luciferase reporter, MeBIO induction); format: cell-based; conditions: HEK-XRE 11.1 cells, MeBIO 0.1 nM, luminescence after 24 hours; Table 1
T1 construct: One of the resultant clones was named HEK-XRE 11.1, and used in the reporter gene assays; endogenous in cells; host or cells: HEK-XRE 11.1 (HEK cells stably carrying the AhR-responsive luciferase reporter X4-4.27 and phRL-CMV)
T1 sequence (P35869 11-848): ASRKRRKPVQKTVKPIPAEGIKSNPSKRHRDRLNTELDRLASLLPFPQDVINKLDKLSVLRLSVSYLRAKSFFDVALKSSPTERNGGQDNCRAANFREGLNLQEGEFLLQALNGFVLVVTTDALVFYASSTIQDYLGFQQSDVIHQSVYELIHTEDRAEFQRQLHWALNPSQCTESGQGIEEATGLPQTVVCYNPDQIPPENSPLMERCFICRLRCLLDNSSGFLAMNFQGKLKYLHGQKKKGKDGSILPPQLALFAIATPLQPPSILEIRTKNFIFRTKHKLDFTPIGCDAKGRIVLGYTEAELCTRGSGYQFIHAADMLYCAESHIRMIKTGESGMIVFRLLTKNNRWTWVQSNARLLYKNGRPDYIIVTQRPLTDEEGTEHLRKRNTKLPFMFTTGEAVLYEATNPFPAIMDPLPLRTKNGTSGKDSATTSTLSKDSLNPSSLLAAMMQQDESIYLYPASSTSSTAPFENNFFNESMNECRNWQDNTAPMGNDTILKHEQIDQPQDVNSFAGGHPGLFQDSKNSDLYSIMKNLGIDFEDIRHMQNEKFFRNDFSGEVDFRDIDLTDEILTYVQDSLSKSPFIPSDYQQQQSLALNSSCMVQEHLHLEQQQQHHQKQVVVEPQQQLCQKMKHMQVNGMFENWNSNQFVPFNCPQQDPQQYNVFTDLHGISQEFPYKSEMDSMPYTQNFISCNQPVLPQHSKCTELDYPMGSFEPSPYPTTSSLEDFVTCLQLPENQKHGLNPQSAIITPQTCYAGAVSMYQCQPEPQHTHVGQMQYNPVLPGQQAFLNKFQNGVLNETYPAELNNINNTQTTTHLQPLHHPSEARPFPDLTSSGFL
Method: HEK cells line was transfected with an AhR-responsive firefly luciferase reporter gene X4-4.27 and the stable transfectants generated were again transfected with phRL-CMV (a Renilla luciferase expression vector; Promega) along with pBAsi-hU6 Pur DNA (a plasmid carrying the puromycin-resistant gene; TaKaRa, Shiga, Japan), and maintained in the presence of both hygromycin B and puromycin (2 mg/mL). One of the resultant clones was named HEK-XRE 11.1, and used in the reporter gene assays.
HEK-XRE 11.1 cells were plated in 384-well plates at a density of 25,000 cells in 50 uL volume per well. The induction of ARh pathway was done by addition of MeBIO at 0.1 nM concentration. ARh antagonist compounds were then added to seeded cells in serial dilutions (8 dilutions, 1:[…] down to 5 nM) in duplicate wells. Renilla expression was not used as internal control. On each plate, Compound 1001 and SR1 were added as dose control (8 dilutions, 1:3, 5 mM down to 2.5 nM for SR1 and 2 mM down to 1 nM for compound 1001). Luminescence activity was evaluated after 24 hours culture using Lumi-384-CellTiterGlo-Corning protocol. Dose-response curves were generated using nonlinear regression in Excel.

[2] = tested on: Human CD34+ cord blood (CB) cells; assay: CD34+ activity assessment (7-day expansion of pre-expanded CD34+ cells, flow cytometry); format: cell-based; conditions: concentration at which compound/vehicle ratio of CD34+ cell number is >= 1.5; 7 days, with 35 nM UM0128171; Table 1
Method: Human CD34+ cord blood (CB) cells were isolated from fresh units using RosetteSep™ 0034 pre-enrichment cocktail followed by CD34 positive selection using EasySep Kit™ (StemCell Technologies). The cells were then pre-expanded in bulk, by culturing at 37° C. for 6 days in HSC expansion media consisting of StemSpan ACF (StemCell Technologies) supplemented with 100 ng/mL Stem Cell Factor (SCF, Shenandoah), 100 ng/mL FMS-like Tyrosine Kinase 3 Ligand (FLT3L, Shenandoah), 50 ng/mL Thrombopoietin (TPO, Shenandoah), 2 mM GlutaMAX™ (Invitrogen), 10 μg/mL low density lipoproteins (LDL, StemCell Technologies), 10 μg/mL Ciprofloxacin and 35 nM UM0128171. […] Following the pre-expansion, cells were harvested, aliquoted and frozen until use.
For each activity assessment, CD34+ pre-expanded cells (approximately 2000 per well in a 384-well plate) were cultured in HSC expansion media, in the presence of 35 nM UM0128171. Compounds were serially diluted (1/2) in DMSO (10 dilutions per compound) and added to the cells in order to achieve a 1/1000 final dilution. StemRegenin1 (SR1) and/or Compound 1001 were included in all experiments as controls to monitor assay performance. The plate was incubated at 37° C. for 7 days in static conditions (i.e. no shaking and no addition of media). Flow cytometry analysis was performed at the end of the 7-day expansion. Cells were stained with PE-labeled anti-human CD45RA (BD Biosciences) and APC-labeled anti-human CD34 (BD Biosciences) and analyzed using Intellicyt IQue cytometer equipped with ForeCyt software. Gates were drawn around the populations of interest to obtain cell numbers and relative proportions. The EC1.5 value, which is the concentration at which the compound/vehicle ratio is greater or equal to 1.5, was calculated by plotting the CD34+ cell number against concentrations (log-scale) in a 4-PL curve and fitting the curve using IDBS XLfit (set model 251) in Microsoft Excel.

Compound: Nc1c(C(=O)Nc2cccc3cnccc23)sc2ncc(C(F)(F)F)cc12 [Compound 1039]
- IC50 [1]: 50 to 500 nM
- EC1.5 [2]: >5000 nM

Compound: Nc1c(C(=O)Nc2cccc3ncccc23)sc2ncc(C(F)(F)F)cc12 [Compound 1040]
- IC50 [1]: 50 to 500 nM
- EC1.5 [2]: >5000 nM

Compound: Nc1c(C(=O)Nc2ccc3ncccc3c2)sc2ncc(C(F)(F)F)cc12 [Compound 1041]
- IC50 [1]: 50 to 500 nM
- EC1.5 [2]: 1000 to 5000 nM

Compound: Nc1c(C(=O)Nc2cnc3ccccc3c2)sc2ncc(C(F)(F)F)cc12 [Compound 1042]
- IC50 [1]: > 500 nM
- EC1.5 [2]: 1000 to 5000 nM

Compound: Nc1c(C(=O)Nc2ccnc3ccccc23)sc2ncc(C(F)(F)F)cc12 [Compound 1043]
- IC50 [1]: > 500 nM
- EC1.5 [2]: >5000 nM

Compound: CCOC(=O)c1cnc2sc(C(=O)Nc3ccccc3)c(N)c2c1 [Compound 1044]
- IC50 [1]: 50 to 500 nM
- EC1.5 [2]: >5000 nM

Compound: Nc1c(C(=O)Nc2ccc(Cl)cc2)sc2ncc(C(F)(F)F)cc12 [Compound 1045]
- IC50 [1]: < 50 nM
- EC1.5 [2]: <100 nM

Compound: COCCc1ccc(NC(=O)c2sc3ncc(C(F)(F)F)cc3c2N)cc1 [Compound 1046]
- IC50 [1]: 50 to 500 nM
- EC1.5 [2]: >5000 nM

Compound: Cc1ccc(NC(=O)c2sc3ncc(C(F)(F)F)cc3c2N)cc1 [Compound 1047]
- IC50 [1]: < 50 nM
- EC1.5 [2]: 100 to 1000 nM

Compound: COc1ccc(NC(=O)c2sc3ncc(C(F)(F)F)cc3c2N)cc1 [Compound 1048]
- IC50 [1]: < 50 nM
- EC1.5 [2]: <100 nM

Compound: Nc1c(C(=O)Nc2ccc(Cl)cc2)sc2cnc(C(F)(F)F)cc12 [Compound 1051]
- IC50 [1]: 50 to 500 nM
- EC1.5 [2]: 1000 to 5000 nM

Compound: Cc1ccc(NC(=O)c2sc3cnc(C(F)(F)F)cc3c2N)cc1 [Compound 1052]
- IC50 [1]: 50 to 500 nM
- EC1.5 [2]: 1000 to 5000 nM

Compound: Nc1c(C(=O)Nc2ccc(-c3ccncc3)cc2)sc2ncc(C(F)(F)F)cc12 [Compound 1056]
- IC50 [1]: 50 to 500 nM
- EC1.5 [2]: >5000 nM

Compound: Nc1c(C(=O)Nc2cccc(-c3cccnc3)c2)sc2ncc(C(F)(F)F)cc12 [Compound 1057]
- IC50 [1]: < 50 nM
- EC1.5 [2]: 1000 to 5000 nM

Compound: Nc1c(C(=O)Nc2cccc(-c3ccncc3)c2)sc2ncc(C(F)(F)F)cc12 [Compound 1058]
- IC50 [1]: < 50 nM
- EC1.5 [2]: 100 to 1000 nM

Compound: Nc1c(C(=O)Nc2cccc(-c3ccccc3)c2)sc2ncc(C(F)(F)F)cc12 [Compound 1059]
- IC50 [1]: 50 to 500 nM
- EC1.5 [2]: 1000 to 5000 nM

Compound: Nc1c(C(=O)Nc2ccc(C(F)(F)F)cc2)sc2ncc(C(F)(F)F)cc12 [Compound 1061]
- IC50 [1]: < 50 nM
- EC1.5 [2]: <100 nM

Compound: Cc1cnc2sc(C(=O)Nc3ccc(Br)cc3)c(N)c2c1 [Compound 1062]
- IC50 [1]: < 50 nM
- EC1.5 [2]: <100 nM

Compound: Cc1cnc2sc(C(=O)Nc3ccncc3)c(N)c2c1 [Compound 1063]
- IC50 [1]: 50 to 500 nM
- EC1.5 [2]: >5000 nM

Compound: Nc1c(C(=O)Nc2ccc(Br)cc2)sc2ccc(C(F)(F)F)cc12 [Compound 1064]
- IC50 [1]: 50 to 500 nM
- EC1.5 [2]: 100 to 1000 nM

Compound: Cc1ccc(NC(=O)c2sc3ccc(C(F)(F)F)cc3c2N)cc1 [Compound 1065]
- IC50 [1]: 50 to 500 nM
- EC1.5 [2]: 100 to 1000 nM

Compound: Nc1c(C(=O)Nc2ccc(Cl)cc2)sc2ccc(C(F)(F)F)cc12 [Compound 1066]
- IC50 [1]: < 50 nM
- EC1.5 [2]: 100 to 1000 nM

Compound: Nc1c(C(=O)Nc2cccnc2)sc2ccc(C(F)(F)F)cc12 [Compound 1067]
- IC50 [1]: < 50 nM
- EC1.5 [2]: 1000 to 5000 nM

Compound: Cc1cnc2sc(C(=O)Nc3ccc(Cl)cc3)c(N)c2c1 [Compound 1068]
- IC50 [1]: < 50 nM
- EC1.5 [2]: <100 nM

Compound: Cc1ccc(NC(=O)c2sc3ncc(C)cc3c2N)cc1 [Compound 1069]
- IC50 [1]: < 50 nM
- EC1.5 [2]: 100 to 1000 nM

Compound: Cc1ccc(NC(=O)c2sc3ncc(C(F)(F)F)cc3c2N)cn1 [Compound 1070]
- IC50 [1]: 50 to 500 nM
- EC1.5 [2]: >5000 nM

Compound: COc1ccc(NC(=O)c2sc3ncc(C(F)(F)F)cc3c2N)cn1 [Compound 1071]
- IC50 [1]: < 50 nM
- EC1.5 [2]: 100 to 1000 nM

Compound: Cc1ccc2sc(C(=O)Nc3ccccc3)c(N)c2n1 [Compound 1072]
- IC50 [1]: 50 to 500 nM
- EC1.5 [2]: >5000 nM

Compound: Cc1ccc2sc(C(=O)Nc3ccc(Cl)cc3)c(N)c2n1 [Compound 1073]
- IC50 [1]: 50 to 500 nM
- EC1.5 [2]: >5000 nM

Compound: Nc1c(C(=O)Nc2ccc(F)c(Cl)c2)sc2ncc(C(F)(F)F)cc12 [Compound 1074]
- IC50 [1]: < 50 nM
- EC1.5 [2]: 100 to 1000 nM

Compound: Nc1c(C(=O)Nc2ccc(F)c(F)c2)sc2ncc(C(F)(F)F)cc12 [Compound 1075]
- IC50 [1]: < 50 nM
- EC1.5 [2]: 100 to 1000 nM

Compound: Cc1cc(NC(=O)c2sc3ncc(C(F)(F)F)cc3c2N)ccc1F [Compound 1076]
- IC50 [1]: 50 to 500 nM
- EC1.5 [2]: 100 to 1000 nM

Compound: Nc1c(C(=O)Nc2cccc(F)c2)sc2ncc(C(F)(F)F)cc12 [Compound 1077]
- IC50 [1]: < 50 nM
- EC1.5 [2]: 100 to 1000 nM

Compound: Cc1ccc(NC(=O)c2sc3ncc(C(F)(F)F)cc3c2N)cc1F [Compound 1078]
- IC50 [1]: 50 to 500 nM
- EC1.5 [2]: 1000 to 5000 nM

Compound: Nc1c(C(=O)Nc2cc(F)cc(F)c2)sc2ncc(C(F)(F)F)cc12 [Compound 1079]
- IC50 [1]: 50 to 500 nM
- EC1.5 [2]: 1000 to 5000 nM

Compound: COc1cccc(NC(=O)c2sc3cnc(C(F)(F)F)cc3c2N)c1 [Compound 1080]
- IC50 [1]: < 50 nM
- EC1.5 [2]: 100 to 1000 nM

Compound: COc1cccc(NC(=O)c2sc3nc4c(cc3c2N)CCC4)c1 [Compound 1081]
- IC50 [1]: < 50 nM
- EC1.5 [2]: <100 nM

Compound: Nc1c(C(=O)Nc2ccc(Cl)cc2)sc2nc3c(cc12)CCC3 [Compound 1082]
- IC50 [1]: < 50 nM
- EC1.5 [2]: <100 nM

Compound: COc1ccc(NC(=O)c2sc3ccc(C(F)(F)F)cc3c2N)cc1 [Compound 1083]
- IC50 [1]: 50 to 500 nM
- EC1.5 [2]: <100 nM

Compound: Nc1c(C(=O)Nc2ccc(OC(F)(F)F)cc2)sc2ncc(C(F)(F)F)cc12 [Compound 1084]
- IC50 [1]: < 50 nM
- EC1.5 [2]: <100 nM

Compound: COc1cccc(NC(=O)c2sc3ncc(C(F)(F)F)cc3c2N)c1 [Compound 1085]
- IC50 [1]: 50 to 500 nM
- EC1.5 [2]: 100 to 1000 nM

Compound: Nc1c(C(=O)Nc2ccc(OC(F)F)cc2)sc2ncc(C(F)(F)F)cc12 [Compound 1086]
- IC50 [1]: < 50 nM
- EC1.5 [2]: 100 to 1000 nM

Compound: COc1ccc(NC(=O)c2sc3ncc(C(F)(F)F)cc3c2N)cc1Cl [Compound 1087]
- IC50 [1]: < 50 nM
- EC1.5 [2]: <100 nM

Compound: Nc1c(C(=O)Nc2ccc(F)cc2)sc2cnc(C(F)(F)F)cc12 [Compound 1088]
- IC50 [1]: < 50 nM
- EC1.5 [2]: >5000 nM

Reference: patent US11696928B2, “Compounds and use thereof in the expansion of stem cells and/or progenitor cells” (UNIVERSITE DE MONTREAL, priority 2017, dated 2023)
